Molecules are shown by their SMILES.

This note sets out measurements from patent publication US5045558A, “N-substituted imidazoles and their use in pharmaceutical agents” (Schering Aktiengesellschaft, priority 1988, dated 1991).

One assay concerns the target T1, aromatase (Homo sapiens, UniProt P11511).
T1 construct: microsomes obtained from human placenta; from tissue; host or cells: human placenta, microsomes
T1 sequence (P11511 1-503): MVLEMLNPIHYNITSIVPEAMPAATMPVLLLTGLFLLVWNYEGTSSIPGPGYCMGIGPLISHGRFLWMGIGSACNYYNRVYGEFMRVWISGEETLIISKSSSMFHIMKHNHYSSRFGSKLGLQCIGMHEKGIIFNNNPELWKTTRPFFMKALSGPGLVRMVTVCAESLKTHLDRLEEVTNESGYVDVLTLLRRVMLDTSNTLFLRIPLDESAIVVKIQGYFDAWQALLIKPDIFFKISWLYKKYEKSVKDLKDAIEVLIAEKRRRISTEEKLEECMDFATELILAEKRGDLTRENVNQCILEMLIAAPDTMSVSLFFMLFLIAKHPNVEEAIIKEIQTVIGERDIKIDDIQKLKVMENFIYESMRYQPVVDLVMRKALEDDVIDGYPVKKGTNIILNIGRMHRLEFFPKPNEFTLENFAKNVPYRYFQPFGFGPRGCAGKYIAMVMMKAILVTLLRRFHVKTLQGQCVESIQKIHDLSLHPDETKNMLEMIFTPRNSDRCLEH
Nature of the assay: Test A: Determination of Aromatase Activity (release of tritium-labeled water, human placenta microsomes). The format is biochemical. The settings on record: for Ki: Test A, human placenta microsomes, Dixon method; for inhibition of aromatase (in words): in comparison with compound 1 / compounds known so far. Here is the method:
Determination of Aromatase Activity
The capabilities of compounds to inhibit the enzyme system of aromatase is tested on microsomes obtained from human placenta. The release of tritium-labeled water (^3 H2 O), which is released as reaction product in the aromatizing of (1beta-^3 H) androstrenedione to estrogen, is measured according to the methods of Thompson and Siiteri (J. Biol. Chem. Z49, 5364-72 (1974)). The corresponding inhibition values (K1, aromatase) are determined according to the method of Dixon (Biochem. J. 94, 760 (1965) by graphic determination of the application of 1/v against the inhibition concentration.

Another assay has as its target T2, 11beta-hydroxylase (Bos taurus, UniProt P15150).
T2 construct: mitochondria, obtained from bovine suprarenals; from tissue; host or cells: bovine suprarenals (adrenal glands), mitochondria
T2 sequence (P15150 25-503): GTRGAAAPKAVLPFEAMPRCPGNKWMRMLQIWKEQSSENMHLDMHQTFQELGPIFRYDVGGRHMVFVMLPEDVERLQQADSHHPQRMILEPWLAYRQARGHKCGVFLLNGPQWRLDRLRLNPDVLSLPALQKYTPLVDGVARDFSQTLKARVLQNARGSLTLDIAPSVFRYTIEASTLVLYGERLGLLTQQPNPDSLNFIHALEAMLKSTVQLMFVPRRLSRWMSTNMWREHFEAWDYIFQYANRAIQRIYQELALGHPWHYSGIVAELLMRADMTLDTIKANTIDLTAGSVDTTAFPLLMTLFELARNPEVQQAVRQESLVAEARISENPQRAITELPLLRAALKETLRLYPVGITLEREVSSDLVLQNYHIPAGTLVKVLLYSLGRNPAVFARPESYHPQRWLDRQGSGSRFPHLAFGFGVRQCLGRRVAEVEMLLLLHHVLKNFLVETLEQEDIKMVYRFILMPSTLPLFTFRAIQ
As to the kind of experiment: Test B: Determination of 11-beta Hydroxylase Activity (mitochondria from bovine suprarenals). The format is biochemical. The settings on record: for IC50: Test B, bovine suprarenal mitochondria, substrate concentration corresponds to apparent Km; for selectivity of aromatase inhibition (in words): aromatase vs other enzyme systems (11beta-hydroxylase), in comparison with compound 1 / compounds known so far. Here is the method:
Determination of 11-beta Hydroxylase Activity
The 11beta-hydroxylase activity is measured on mitochondria, obtained from bovine suprarenals. The reaction of [1,2-^3 H]-17alpha-hydroxy-11-deoxycorticosterone in cortisol is determined by thin-film chromatography of the resulting reaction products according to a method of Mitani et al (J. Biol. Chem 250, 8010-15 (1975)). The concentration of the examined compound is determined, in which the reaction is inhibited by 50%, and the substrate concentration corresponds to the apparent Km value.

For `CCCC(c1ccc(C#N)cc1)n1ccnc1` (stereo not shown) [Compound 1, 4-[1-(1-imidazolyl)-butyl]-benzonitrile, reference compound], at aromatase, the affinity corresponds to a Ki of 1.1 nM. The concentration for half-maximal inhibition (IC50) (usually the concentration that gives 50% inhibition) on 11beta-hydroxylase turned out to be 94 nM.

As to `CCCCOC(=O)c1ccc(C(CCC)n2ccnc2)cc1` (stereo not shown) [Compound 3, 4-[1-(1-imidazolyl)-butyl]-benzoic acid butyl ester], at aromatase, the Ki – broadly, a measure of affinity in units of concentration, obtained from inhibition or displacement – was 0.87 nM and the “inhibition of aromatase (in words)” value is “stronger inhibition actions of aromatase than compound 1”. Also, at 11beta-hydroxylase, the half-inhibitory concentration (IC50) came to 750 nM and the “selectivity of aromatase inhibition (in words)” value is “more selective effectiveness”.

Consider `CCCCCC(=O)c1ccc(C(CCC)n2ccnc2)cc1` (stereo not shown) [Compound 2, [4-[1-(1-Imidazolyl)-butyl]-phenyl]-pentylketone], for which, at aromatase, affinity was put at a Ki of 0.42 nM and the “inhibition of aromatase (in words)” value is given as “stronger inhibition actions of aromatase than compound 1”. At 11beta-hydroxylase, the IC50 was 1500 nM and the “selectivity of aromatase inhibition (in words)” value is “more selective effectiveness”.
